One assay concerns Trx. Particulars: human primary breast and colon tumor tissues, Butler et al. 2002; cited from earlier work.
Another assay concerns HDAC. As to the kind of experiment: Western blot analysis of histones (tetra-AcLys H4) isolated from treated Drosophila S2 cells. It is filed as cell-based.

Experimental for HDAC: Drosophila S2 cells can be cultured in Schneider's medium and grown as previously described by Wade and co-workers for periods ranging from 12 h to 96 h (Ballestar et al., 2001, Eur. J. Biochem. 268: 5397-5406). Cells may then be lysed and nuclear extracts prepared according to Thompson and co-workers (Steffan, 2001, Nature 413: 739-743). Lysates are then be subjected to differing concentrations of HDAC inhibitors and/or reductants (Barlow et al., 2001, Exp. Cell Res. 265: 90-103).
H2B detection was used to ensure equivalent protein loading to each well. […] Cells in all reactions were incubated at ambient temperature in media that contained 20 μM of each respective synthetic agent. Incubations were conducted for either 48 or 72 hours prior to nuclei isolation and processing.
H2B detection was used to ensure equivalent protein loading to each well. […] Lane 1 is a dioxane solvent control and concentrations of “drug” in cell medium are indicated above each lane. All cells were treated for a period of 48 hours at ambient temperature prior to nuclei isolation and processing.
Briefly, 2×10^6 cells in 10 mL medium are brought to 2×10^−5 M in synthetic intermediate and then allowed to incubate at ambient temperature for specified times. […] Histone H2B was detected in each case in order to verify equal protein loadings for each lane.

For `O=C(CCCCCCC(=O)Nc1ccccc1)NO` [SAHA], the “effect on Trx” value with Trx is reported as “down regulates Trx”.
Turning to `O=C(CCCCCS)NC(CO)CSCc1ccccc1` (stereo not drawn) [compound 33], the “acetylated H4 in histones isolated from treated cells (Western blot)” value in the assay with HDAC (20 μM, 48 or 72 hours, ambient temperature (FIG. 3A)) is reported as “a significant amount of acetylated H4”. In addition, the “cellular HDAC inhibition (Western blot data)” value in the assay with HDAC (at −20 μM concentration) is “potent cellular HDAC inhibitors”.

(Values after patent US20060128660A1, “FK228 analogs and methods of making and using the same” (Wisconsin Alumni Research Foundation, priority 2004, published 2006).)
